Source: the supplement of paper PMC9663587

Columns and labels:
[1] = compound: CCN1CCN(Cc2ccc(Nc3ncc(F)c(-c4cc(F)c5nc(C)n(C(C)C)c5c4)n3)nc2)CC1
Taselisib/GDC0032 = compound: Cc1nc(-c2cn3c(n2)-c2ccc(-c4cnn(C(C)(C)C(N)=O)c4)cc2OCC3)n(C(C)C)n1 [Taselisib/GDC0032]
Pictilisib/GDC0941 = compound: CS(=O)(=O)N1CCN(Cc2cc3nc(-c4cccc5[nH]ncc45)nc(N4CCOCC4)c3s2)CC1 [Pictilisib/GDC0941]
Tivantinib/ARQ197 = compound: O=C1NC(=O)[C@@H](c2cn3c4c(cccc24)CCC3)[C@@H]1c1c[nH]c2ccccc12 [Tivantinib/ARQ197]
[2] = compound: COc1ccc2c(c1)[C@]1(C[C@H]1c1ccc3c(/C=C/c4ccc(CN5C[C@@H](C)O[C@@H](C)C5)cc4)n[nH]c3c1)C(=O)N2
Volasertib/BI6727 = compound: CC[C@@H]1C(=O)N(C)c2cnc(Nc3ccc(C(=O)N[C@H]4CC[C@H](N5CCN(CC6CC6)CC5)CC4)cc3OC)nc2N1C(C)C [Volasertib/BI6727]
Neratinib/HKI272 [3] = compound: T1, CCOc1cc2ncc(C#N)c(Nc3ccc(OCc4ccccn4)c(Cl)c3)c2cc1NC(=O)/C=C/CN(C)C [Neratinib/HKI272]
Ceritinib/LDK378 = compound: Cc1cc(Nc2ncc(Cl)c(Nc3ccccc3S(=O)(=O)C(C)C)n2)c(OC(C)C)cc1C1CCNCC1 [Ceritinib/LDK378]
BSJ-03-123 [4] = compound: T2, CC(=O)c1c(C)c2cnc(Nc3ccc(N4CCN(CCOCCOCCOCCNC(=O)COc5cccc6c5C(=O)N(C5CCC(=O)NC5=O)C6=O)CC4)cn3)nc2n(C2CCCC2)c1=O [BSJ-03-123]
LEE011/Ribociclib [5] = compound: T3, CN(C)C(=O)c1cc2cnc(Nc3ccc(N4CCNCC4)cn3)nc2n1C1CCCC1 [LEE011/Ribociclib]
INK128/MLN0128 = compound: CC(C)n1nc(-c2ccc3oc(N)nc3c2)c2c(N)ncnc21 [INK128/MLN0128]
Paclitaxel = compound: CC(=O)O[C@H]1C(=O)[C@@]2(C)[C@H]([C@H](OC(=O)c3ccccc3)[C@]3(O)C[C@H](OC(=O)[C@H](O)[C@@H](NC(=O)c4ccccc4)c4ccccc4)C(C)=C1C3(C)C)[C@]1(OC(C)=O)CO[C@@H]1C[C@@H]2O [Paclitaxel]
ABT-737 = compound: CN(C)CC[C@H](CSc1ccccc1)Nc1ccc(S(=O)(=O)NC(=O)c2ccc(N3CCN(Cc4ccccc4-c4ccc(Cl)cc4)CC3)cc2)cc1[N+](=O)[O-] [ABT-737]
THZ531 = compound: CN(C)C/C=C/C(=O)Nc1ccc(C(=O)N2CCC[C@@H](Nc3ncc(Cl)c(-c4c[nH]c5ccccc45)n3)C2)cc1 [THZ531]
[6] = compound: CCN1CCN(Cc2ccc(Nc3ncc(F)c(-c4cc(F)c5nc(C)n(C(C)C)c5c4)n3)nc2)CC1; assay: GR value, 72 h; higher = faster growth (1 = untreated, <0 = killing);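 further: breast cancer and non-malignant breast epithelial lines, nine half-log doses, viable cells counted by Hoechst and LIVE/DEAD dye imaging versus time-zero plates and DMSO controls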
[7] = compound: CCc1cnn2c(NCc3ccc[n+]([O-])c3)cc(N3CCCC[C@H]3CCO)nc12; assay: as above
Neratinib/HKI272 [8] = compound: T1, Neratinib/HKI272; assay: as above
BSJ-03-123 [9] = compound: T2, BSJ-03-123; assay: as above
LEE011/Ribociclib [10] = compound: T3, LEE011/Ribociclib; assay: as above
YKL-5-124 = compound: C=CC(=O)Nc1ccc(C(=O)Nc2[nH]nc3c2CN(C(=O)N[C@H](CN(C)C)c2ccccc2)C3(C)C)cc1 [YKL-5-124]; assay: as above
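Wherever GR50, 72 h is given: breast cancer and non-malignant breast epithelial cell lines, Deep Dye Drop or Dye Drop imaging, nine half-log doses, GR normalized to time-zero plates and DMSO-only controls.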

CAL51
GR50, 72 h [1]: 0.113 µM | GR50, 72 h (Taselisib/GDC0032): 0.134 µM | GR50, 72 h (Pictilisib/GDC0941): 2.89 µM | GR50, 72 h (Tivantinib/ARQ197): 0.588 µM | GR50, 72 h [2]: 0.00556 µM | GR50, 72 h (Volasertib/BI6727): 0.00591 µM | GR50, 72 h (Neratinib/HKI272 [3]): 2.25 µM | GR50, 72 h (Ceritinib/LDK378): 0.475 µM | GR50, 72 h (BSJ-03-123 [4]): 4.36 µM | GR50, 72 h (LEE011/Ribociclib [5]): 3.72 µM | GR50, 72 h (INK128/MLN0128): 0.015 µM | GR50, 72 h (Paclitaxel): 0.00417 µM | GR50, 72 h (ABT-737): > 10 µM | GR50, 72 h (THZ531): > 1 µM | GR value ([6]; 0.001 µM): 0.966 GR | GR value ([6]; 0.003162 µM): 0.882 GR | GR value ([6]; 0.01 µM): 0.752 GR | GR value ([6]; 0.03162 µM): 0.569 GR | GR value ([6]; 0.1 µM): 0.501 GR | GR value ([6]; 0.3162 µM): 0.365 GR | GR value ([6]; 1 µM): 0.207 GR | GR value ([6]; 3.162 µM): -0.124 GR | GR value ([6]; 10 µM): -0.46 GR | GR value ([7]; 0.0001 µM): 0.999 GR | GR value ([7]; 0.0003162 µM): 0.954 GR | GR value ([7]; 0.001 µM): 1.03 GR | GR value ([7]; 0.003162 µM): 0.974 GR | GR value ([7]; 0.01 µM): 0.831 GR | GR value ([7]; 0.03162 µM): -0.218 GR | GR value ([7]; 0.1 µM): -0.356 GR | GR value ([7]; 0.3162 µM): -0.355 GR | GR value ([7]; 1 µM): -0.341 GR | GR value (Neratinib/HKI272 [8]; 0.0003162 µM): 0.983 GR | GR value (Neratinib/HKI272 [8]; 0.001 µM): 1 GR | GR value (Neratinib/HKI272 [8]; 0.003162 µM): 0.938 GR | GR value (Neratinib/HKI272 [8]; 0.01 µM): 1.01 GR | GR value (Neratinib/HKI272 [8]; 0.03162 µM): 1 GR | GR value (Neratinib/HKI272 [8]; 0.1 µM): 0.975 GR | GR value (Neratinib/HKI272 [8]; 0.3162 µM): 0.94 GR | GR value (Neratinib/HKI272 [8]; 1 µM): 0.833 GR | GR value (Neratinib/HKI272 [8]; 3.162 µM): 0.293 GR | GR value (BSJ-03-123 [9]; 0.001 µM): 0.894 GR | GR value (BSJ-03-123 [9]; 0.003162 µM): 0.912 GR | GR value (BSJ-03-123 [9]; 0.01 µM): 0.915 GR | GR value (BSJ-03-123 [9]; 0.03162 µM): 0.898 GR | GR value (BSJ-03-123 [9]; 0.1 µM): 0.895 GR | GR value (BSJ-03-123 [9]; 0.3162 µM): 0.818 GR | GR value (BSJ-03-123 [9]; 1 µM): 0.763 GR | GR value (BSJ-03-123 [9]; 3.162 µM): 0.76 GR | GR value (BSJ-03-123 [9]; 10 µM): 0.121 GR | GR value (LEE011/Ribociclib [10]; 0.001 µM): 0.899 GR | GR value (LEE011/Ribociclib [10]; 0.003162 µM): 0.874 GR | GR value (LEE011/Ribociclib [10]; 0.01 µM): 0.808 GR | GR value (LEE011/Ribociclib [10]; 0.03162 µM): 0.772 GR | GR value (LEE011/Ribociclib [10]; 0.1 µM): 0.693 GR | GR value (LEE011/Ribociclib [10]; 0.3162 µM): 0.658 GR | GR value (LEE011/Ribociclib [10]; 1 µM): 0.631 GR | GR value (LEE011/Ribociclib [10]; 3.162 µM): 0.55 GR | GR value (LEE011/Ribociclib [10]; 10 µM): 0.396 GR | GR value (YKL-5-124; 0.001 µM): 0.748 GR | GR value (YKL-5-124; 0.003162 µM): 0.59 GR | GR value (YKL-5-124; 0.01 µM): 0.391 GR | GR value (YKL-5-124; 0.03162 µM): 0.327 GR | GR value (YKL-5-124; 0.1 µM): 0.314 GR | GR value (YKL-5-124; 0.3162 µM): 0.236 GR | GR value (YKL-5-124; 1 µM): 0.216 GR | GR value (YKL-5-124; 3.162 µM): 0.165 GR | GR value (YKL-5-124; 10 µM): -0.0011 GR
